target: FXR (Homo sapiens (Human), UniProt Q96RI1); assay: FXR EC50 (FXR agonist activity reported with each example); type: cell-based
Sequence (Q96RI1 262-486): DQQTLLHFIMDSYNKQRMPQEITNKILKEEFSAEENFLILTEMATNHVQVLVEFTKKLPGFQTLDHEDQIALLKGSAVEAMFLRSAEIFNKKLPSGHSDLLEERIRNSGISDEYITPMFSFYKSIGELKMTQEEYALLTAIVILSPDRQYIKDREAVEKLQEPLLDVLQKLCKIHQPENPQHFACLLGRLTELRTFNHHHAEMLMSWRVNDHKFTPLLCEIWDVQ

Structure (SMILES)	EC50
COc1cc(OCC23CCC(/C=C/c4c(-c5c(Cl)cncc5Cl)noc4C4CC4)(CC2)CO3)cc(C(=O)O)c1 [Example 470, (E)-3-((4-(2-(5-cyclopropyl-3-(3,5-dichloropyridin-4-yl)isoxazol-4-yl)vinyl)-2-oxabicyclo[2.2.2]octan-1-yl)methoxy)-5-methoxybenzoic acid]	110 nM
CC(C)Oc1nc(C(=O)O)cc2ccc(/C=C/C34CCC(OCc5c(-c6c(Cl)cncc6Cl)noc5C5CC5)(CC3)CC4)cc12 [Example 518, (E)-7-(2-(4-((5-cyclopropyl-3-(3,5-dichloropyridin-4-yl)isoxazol-4-yl)methoxy)bicyclo[2.2.2]octan-1-yl)vinyl)-1-isopropoxyisoquinoline-3-carboxylic acid]	62 nM
CCOc1cc(OCC23CCC(OCc4c(-c5c(Cl)cncc5Cl)noc4C4CC4)(CC2)CC3)cnc1C(N)=O [Example 295]	230 nM
CC(C)Oc1cc(C(=O)O)nc2c(F)cc(OCC34CCC(OCc5c(-c6c(Cl)cncc6Cl)noc5C5CC5)(CC3)CC4)cc12 [Example 304, 6-((4-((5-cyclopropyl-3-(3,5-dichloropyridin-4-yl)isoxazol-4-yl)methoxy)bicyclo[2.2.2]octan-1-yl)methoxy)-8-fluoro-4-isopropoxyquinoline-2-carboxylic acid]	11 nM
O=C(O)c1cc(OC(F)F)c2cc(OCC34CCC(OCc5c(-c6c(Cl)cncc6Cl)noc5C5CC5)(CC3)CC4)ccc2n1 [Example 284, 6-((4-((5-cyclopropyl-3-(3,5-dichloropyridin-4-yl)isoxazol-4-yl)methoxy)bicyclo[2.2.2]octan-1-yl)methoxy)-4-(difluoromethoxy)quinoline-2-carboxylic acid]	8 nM
O=C(O)c1ccc(C23CCC(CNc4c(-c5c(Cl)cccc5Cl)noc4C4CC4)(CC2)CO3)cc1 [Example 203, 4-(4-(((5-cyclopropyl-3-(2,6-dichlorophenyl)isoxazol-4-yl)amino)methyl)-2-oxabicyclo[2.2.2]octan-1-yl)benzoic acid]	420 nM
COc1cc(-c2noc(C34CCC(OCc5c(-c6c(Cl)cnn6C)noc5C5CC5)(CC3)CC4)n2)cc(C(=O)O)n1 [Example 275, 4-(5-(4-((3-(4-chloro-1-methyl-1H-pyrazol-5-yl)-5-cyclopropylisoxazol-4-yl)methoxy)bicyclo[2.2.2]octan-1-yl)-1,2,4-oxadiazol-3-yl)-6-methoxypicolinic acid]	2500 nM
O=C(O)c1cc(OCC2CC2)c2cc(OCC34CCC(OCc5c(-c6c(Cl)cncc6Cl)noc5C5CC5)(CC3)CC4)c(F)cc2n1 [Example 314, 6-((4-((5-cyclopropyl-3-(3,5-dichloropyridin-4-yl)isoxazol-4-yl)methoxy)bicyclo[2.2.2]octan-1-yl)methoxy)-4-(cyclopropylmethoxy)-7-fluoroquinoline-2-carboxylic acid]	67 nM
O=C(O)c1cccc2nc(OCC34CCC(OCc5c(-c6c(Cl)cncc6Cl)noc5C5CC5)(CC3)CC4)ccc12 [Example 343]	75 nM
O=C(O)c1cccc(-c2noc(C34CCC(COCc5c(-c6ccccc6OC(F)(F)F)noc5C5CC5)(CC3)CO4)n2)c1 [Example 213]	1200 nM
O=C(O)c1cccc(-c2noc(C34CCC(OCc5c(-c6ccccc6OC(F)(F)F)noc5C5CC5)(CC3)CO4)n2)c1 [Example 199]	220 nM
O=C(O)c1cc(-c2noc(C34CCC(OCc5c(-c6c(Cl)cccc6Cl)noc5C5CC5)(CC3)CC4)n2)ccn1 [Example 14, 4-(5-(4-((5-cyclopropyl-3-(2,6-dichlorophenyl)isoxazol-4-yl)methoxy)bicyclo[2.2.2]octan-1-yl)-1,2,4-oxadiazol-3-yl)picolinic acid]	130 nM
O=C(O)c1cnn2ccc(C#CC34CCC(OCc5c(-c6c(Cl)cncc6Cl)noc5C5CC5)(CC3)CC4)cc12 [Example 395]	120 nM
O=C(O)c1ccc(C(F)(F)F)c2nc(C34CCC(OCc5c(-c6c(Cl)cncc6Cl)noc5C5CC5)(CC3)CC4)ccc12 [Example 398]	30 nM
O=C(O)c1cc(C(F)(F)F)cc2nc(C34CCC(OCc5c(-c6c(Cl)cncc6Cl)noc5C5CC5)(CC3)CC4)sc12 [Example 434, 2-(4-((5-cyclopropyl-3-(3,5-dichloropyridin-4-yl)isoxazol-4-yl)methoxy)bicyclo[2.2.2]octan-1-yl)-5-(trifluoromethyl)benzo[d]thiazole-7-carboxylic acid]	18 nM
O=C(O)c1cccc(-c2noc(C34CCC(/C=C/c5c(-c6c(Cl)cncc6Cl)noc5C5CC5)(CC3)OC4)n2)c1 [Example 495, (E)-3-(5-(1-(2-(5-cyclopropyl-3-(3,5-dichloropyridin-4-yl)isoxazol-4-yl)vinyl)-2-oxabicyclo[2.2.2]octan-4-yl)-1,2,4-oxadiazol-3-yl)benzoic acid]	1700 nM
O=C(O)c1ccc(-c2nc(C34CCC(OCc5c(-c6ccccc6C(F)(F)F)noc5C5CC5)(CC3)CC4)no2)cc1 [Example 21, 4-(3-(4-((5-cyclopropyl-3-(2-(trifluoromethyl)phenyl)isoxazol-4-yl)methoxy)bicyclo[2.2.2]octan-1-yl)-1,2,4-oxadiazol-5-yl)benzoic acid]	880 nM

Structure (SMILES)	EC50
NC(=O)c1noc(C23CCC(OCc4c(-c5c(Cl)cccc5Cl)noc4C4CC4)(CC2)CC3)n1 [Example 74, 5-(4-((5-cyclopropyl-3-(2,6-dichlorophenyl)isoxazol-4-yl)methoxy)bicyclo[2.2.2]octan-1-yl)-1,2,4-oxadiazole-3-carboxamide]	520 nM
CC(C)Oc1cc(-c2noc(C34CCC(OCc5c(-c6c(Cl)cncc6Cl)noc5C5CC5)(CC3)CC4)n2)cc(C(=O)O)n1 [Example 258, 4-(5-(4-((5-cyclopropyl-3-(3,5-dichloropyridin-4-yl)isoxazol-4-yl)methoxy)bicyclo[2.2.2]octan-1-yl)-1,2,4-oxadiazol-3-yl)-6-isopropoxypicolinic acid]	8 nM
COc1cc(OCC23CCC(/C=C/c4c(-c5c(Cl)cncc5Cl)noc4C4CC4)(CC2)CC3)cc(C(=O)O)c1 [Example 493, (E)-3-((4-(2-(5-cyclopropyl-3-(3,5-dichloropyridin-4-yl)isoxazol-4-yl)vinyl)bicyclo[2.2.2]octan-1-yl)methoxy)-5-methoxybenzoic acid]	18 nM
O=C(O)c1csc(OCC23CCC(OCc4c(-c5c(Cl)cncc5Cl)noc4C4CC4)(CC2)CC3)n1 [Example 465, 2-((4-((5-cyclopropyl-3-(3,5-dichloropyridin-4-yl)isoxazol-4-yl)methoxy)bicyclo[2.2.2]octan-1-yl)methoxy)thiazole-4-carboxylic acid]	180 nM
COc1ccc(C#CC23CCC(OCc4c(-c5c(Cl)cncc5Cl)noc4C4CC4)(CC2)CC3)cc1C(=O)O [Example 367]	91 nM
O=C(O)c1ccc(F)c(-c2noc(C34CCC(COCc5c(-c6c(Cl)cncc6Cl)noc5C5CC5)(CC3)CC4)n2)c1 [Example 486, 3-(5-(4-(((5-cyclopropyl-3-(3,5-dichloropyridin-4-yl)isoxazol-4-yl)methoxy)methyl)bicyclo[2.2.2]octan-1-yl)-1,2,4-oxadiazol-3-yl)-4-fluorobenzoic acid]	2700 nM
O=C(O)C1(c2noc(C34CCC(OCc5c(-c6c(Cl)cncc6Cl)noc5C5CC5)(CC3)CC4)n2)CC1 [Example 271, 1-(5-(4-((5-cyclopropyl-3-(3,5-dichloropyridin-4-yl)isoxazol-4-yl)methoxy)bicyclo[2.2.2]octan-1-yl)-1,2,4-oxadiazol-3-yl)cyclopropane-1-carboxylic acid]	1100 nM
O=C(O)c1ccc(-c2nc(C34CCC(OCc5c(-c6ccccc6OC(F)(F)F)noc5C5CC5)(CC3)CC4)no2)cc1 [Example 57]	650 nM
O=C(O)c1cccc(-c2noc(C34CCC(CNc5c(-c6c(Cl)cccc6Cl)noc5C5CC5)(CC3)CC4)n2)c1 [Example 166, 3-(5-(4-(((5-cyclopropyl-3-(2,6-dichlorophenyl)isoxazol-4-yl)amino)methyl)bicyclo[2.2.2]octan-1-yl)-1,2,4-oxadiazol-3-yl)benzoic acid]	580 nM
Clc1cccc(Cl)c1-c1noc(C2CC2)c1COC12CCC(c3nc4ccc(-c5nnn[nH]5)cc4s3)(CC1)CC2 [Example 66, 4-(((4-(6-(1H-tetrazol-5-yl)benzo[d]thiazol-2-yl)bicyclo[2.2.2]octan-1-yl)oxy)methyl)-5-cyclopropyl-3-(2,6-dichlorophenyl)isoxazole]	390 nM
CC(C)Oc1cc(C(=O)O)nc2ccc(OCC34CCC(OCc5c(-c6c(Cl)cncc6Cl)noc5C5CC5)(CC3)CC4)cc12 [Example 328, 6-((4-((5-cyclopropyl-3-(3,5-dichloropyridin-4-yl)isoxazol-4-yl)methoxy)bicyclo[2.2.2]octan-1-yl)methoxy)-4-isopropoxyquinoline-2-carboxylic acid]	15 nM
CCCc1cc(C(=O)O)nc2ccc(OCC34CCC(OCc5c(-c6c(Cl)cncc6Cl)noc5C5CC5)(CC3)CC4)cc12 [Example 338, 6-((4-((5-cyclopropyl-3-(3,5-dichloropyridin-4-yl)isoxazol-4-yl)methoxy)bicyclo[2.2.2]octan-1-yl)methoxy)-4-propylquinoline-2-carboxylic acid]	17 nM
O=C(O)c1cc(C(F)(F)F)cc(C#CC23CCC(OCc4c(-c5c(Cl)cncc5Cl)noc4C4CC4)(CC2)CC3)n1 [Example 373]	460 nM
O=C(O)c1cnc(C#CC23CCC(OCc4c(-c5c(Cl)cncc5Cl)noc4C4CC4)(CC2)CC3)cc1C(F)(F)F [Example 374]	130 nM
O=C(O)c1cc(OC(F)F)c2cc(OCC34CCC(/C=C/c5c(-c6c(Cl)cncc6Cl)noc5C5CC5)(CC3)CC4)ccc2n1 [Example 451, (E)-6-((4-(2-(5-cyclopropyl-3-(3,5-dichloropyridin-4-yl)isoxazol-4-yl)vinyl)bicyclo[2.2.2]octan-1-yl)methoxy)-4-(difluoromethoxy)quinoline-2-carboxylic acid]	35 nM
O=C(O)c1cccc(/C=C/C23CCC(OCc4c(-c5c(Cl)cccc5Cl)noc4C4CC4)(CC2)CC3)c1 [Example 7, (E)-3-(2-(4-((5-cyclopropyl-3-(2,6-dichlorophenyl)isoxazol-4-yl)methoxy)bicyclo[2.2.2]octan-1-yl)vinyl)benzoic acid]	150 nM
O=C(O)c1ccc(OCC23CCC(OCc4c(-c5c(Cl)cncc5Cl)noc4C4CC4)(CC2)CC3)c(C(F)(F)F)c1 [Example 320]	410 nM

Reference: patent US10730863B2, “Bridged bicyclic compounds as farnesoid X receptor modulators” (BRISTOL-MYERS SQUIBB COMPANY, priority 2017, dated 2020)
